Patent US6380227B1, “Fermentative preparation process for and crystal forms of cytostatics” (Novartis AG, priority 1998, dated 2002)

Assay: Stability of crystal forms of epothilone B
Conditions: storage, no test described

C/C(=C\c1csc(C)n1)[C@@H]1C[C@@H]2O[C@]2(C)CCC[C@H](C)[C@H](O)[C@@H](C)C(=O)C(C)(C)[C@@H](O)CC(=O)O1 [crystal form A, epothilone B]
stability of the solid crystal form: especially stable
